Here are results for ten compounds from ChEMBL document CHEMBL1201862, “PubChem BioAssay data set” (2004).

Among the test systems are HT-29; OVCAR-8; T47D; MDA-N; SN12C; SF-295; NCI-H226; NCI/ADR-RES; OVCAR-5; NCI-H460; Malme-3M; SNB-19; EKVX; HOP-92; M14; TK-10; 786-0; MDA-MB-435; A498; COLO 205.
What all share (test): DTP human tumour cell line panel, 48 h

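Following 48 hours of exposure in 96-well plates, responses at five concentrations were used to interpolate endpoints linearly. GI50 marks 50% less growth.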 Active and inactive are the calls of the source. Rule as the data show it: active = GI50 up to about 1.1 µM and inactive = higher.

On to `CCCCCCCCCCCC1NC(N)=NC(CCCO)=C1C(=O)OC` (stereo not given), for which the GI50 was 1.73 µM (inactive) in the experiment with HT-29; 2.3 µM (inactive) in the experiment with OVCAR-8; 5.09 µM (inactive) in the experiment on T47D; 2.44 µM (inactive) in the experiment with MDA-N; 2.47 µM (inactive) with SN12C; 2.93 µM (inactive) with SF-295. The GI50 in the experiment with NCI-H226 is 6.3 µM (inactive); in the experiment on NCI/ADR-RES, 17.7 µM (inactive); in the experiment on OVCAR-5, 6.62 µM (inactive); in the experiment with NCI-H460, 1.94 µM (inactive); with Malme-3M, 5.12 µM (inactive); in the experiment on SNB-19 it was 1.83 µM (inactive). Further, the GI50 was 16.1 µM (inactive) in the experiment on EKVX; 3.54 µM (inactive) with HOP-92; 1.93 µM (inactive) with M14; 2.23 µM (inactive) in the experiment on TK-10; 1.83 µM (inactive) in the experiment with 786-0; 1.88 µM (inactive) with MDA-MB-435. Besides, the figures for the GI50 in the experiment on A498 and in the experiment on COLO 205 were 14.6 µM (inactive) and 1.88 µM (inactive), respectively.

Regarding `CC(C)OC(=O)Nc1c([N+](=O)[O-])cc(C(F)(F)F)cc1[N+](=O)[O-]`, the GI50 is > 100 µM (inactive) with HT-29; 75.7 µM (inactive) with OVCAR-8; > 100 µM (inactive) in the experiment on T47D; > 100 µM (inactive) in the experiment on MDA-N; > 91 µM (inactive) in the experiment with SN12C; 54.1 µM (inactive) with SF-295. Moreover, the GI50 in the experiment on NCI-H226 is > 89.1 µM (inactive); with NCI/ADR-RES, > 100 µM (inactive); in the experiment with OVCAR-5, > 100 µM (inactive); with NCI-H460, > 100 µM (inactive); in the experiment with Malme-3M it was > 100 µM (inactive); in the experiment on SNB-19 it was 41.1 µM (inactive). Besides, the GI50 in the experiment on EKVX is > 100 µM (inactive); with HOP-92, 33 µM (inactive); in the experiment with M14, > 100 µM (inactive); in the experiment on TK-10, > 100 µM (inactive); in the experiment on 786-0, 15.9 µM (inactive); in the experiment with MDA-MB-435 it was > 100 µM (inactive). Also, the GI50 in the experiment with A498 and in the experiment with COLO 205 was > 100 µM (inactive) in each case.

As to `O=C(O)C[S+]([O-])c1ccc2c3c(cccc13)C(=O)c1ccccc1-2` (stereo not given), the GI50 with HT-29, in the experiment on OVCAR-8, in the experiment on T47D, with MDA-N, with SN12C and in the experiment on SF-295 was > 100 µM (inactive) each time. For the same compound, the GI50 with NCI-H226, in the experiment on NCI/ADR-RES, in the experiment with OVCAR-5, with NCI-H460, in the experiment on Malme-3M and in the experiment on SNB-19 was > 100 µM (inactive) each time. Besides, the GI50 in the experiment with EKVX is 55.1 µM (inactive); in the experiment on HOP-92 it was > 100 µM (inactive); in the experiment on M14 it was > 100 µM (inactive); with TK-10, > 100 µM (inactive); in the experiment on 786-0, > 100 µM (inactive); in the experiment with MDA-MB-435 it was > 100 µM (inactive). Also, the GI50 in the experiment on A498 and in the experiment with COLO 205 was > 100 µM (inactive) each time.

In the case of `COc1cc2cc(C(=O)N3CC(CCl)c4ccc(NCCN)cc43)[nH]c2c(OC)c1OC` (stereo not given), the 50% growth inhibitory concentration (GI50) in the experiment with HT-29 was 0.145 µM (active); in the experiment on OVCAR-8, 0.167 µM (active); in the experiment on T47D it was 0.301 µM (active); in the experiment with MDA-N, 0.176 µM (active); in the experiment with SN12C, 0.237 µM (active); with SF-295 it was 0.197 µM (active). The GI50 with NCI-H226 was 0.296 µM (active); in the experiment with NCI/ADR-RES it was 0.208 µM (active); in the experiment with OVCAR-5, 0.337 µM (active); in the experiment with NCI-H460 it was 0.0658 µM (active); with Malme-3M it was 0.172 µM (active); in the experiment on SNB-19, 0.292 µM (active). Also, the GI50 with EKVX was 0.528 µM (active); in the experiment with HOP-92, 0.289 µM (active); with M14, 0.198 µM (active); in the experiment with TK-10, 0.33 µM (active); in the experiment on 786-0, 0.228 µM (active); with MDA-MB-435, 0.2 µM (active). Also, the GI50 in the experiment with A498 was 0.184 µM (active); in the experiment with COLO 205 it was 0.222 µM (active).

For the compound `[N-]=[N+]=Nc1c([N+](=O)[O-])c(=O)n(-c2ccccc2)c2ccccc12`, the GI50 in the experiment with HT-29 is 28.2 µM (inactive); with OVCAR-8, 20.1 µM (inactive); with T47D, 29.1 µM (inactive); with MDA-N, 27.2 µM (inactive); in the experiment on SN12C, 23.4 µM (inactive); with SF-295 it was 27.9 µM (inactive). For the same compound, the GI50 was 25.5 µM (inactive) with NCI-H226; 20.7 µM (inactive) with NCI/ADR-RES; > 100 µM (inactive) in the experiment on OVCAR-5; 30.6 µM (inactive) in the experiment with NCI-H460; 17 µM (inactive) with Malme-3M; 32.3 µM (inactive) with SNB-19. The GI50 is 16.7 µM (inactive) with EKVX; 26.4 µM (inactive) in the experiment on HOP-92; 27.2 µM (inactive) in the experiment on M14; 14.2 µM (inactive) with TK-10; 19.5 µM (inactive) in the experiment with 786-0; 21 µM (inactive) in the experiment with MDA-MB-435. The GI50 was 73.5 µM (inactive) in the experiment with A498 and 21.1 µM (inactive) with COLO 205.

On to `CCOCCOC(=O)C1CCC(=O)N1CN(C(C)=O)c1cc(OC)ccc1OC` (stereo not given), for which the GI50 in the experiment on HT-29, with OVCAR-8, in the experiment with T47D, in the experiment on MDA-N, in the experiment with SN12C and in the experiment with SF-295 was > 100 µM (inactive) throughout. Besides, the GI50 in the experiment with NCI-H226, in the experiment on NCI/ADR-RES, in the experiment with OVCAR-5, in the experiment with NCI-H460, in the experiment with Malme-3M and with SNB-19 was > 100 µM (inactive) in each case. For the same compound, the GI50 in the experiment on EKVX, in the experiment with HOP-92, with M14, with TK-10, in the experiment on 786-0 and with MDA-MB-435 was > 100 µM (inactive) in each case. Further, the GI50 in the experiment on A498 and in the experiment with COLO 205 was > 100 µM (inactive) each time.

For the compound `COc1ccc(C2C(C(=O)c3ccccc3)=C(O)C(O)(CC(=O)c3ccccc3)N2c2ccc(OC)cc2)cc1` (stereo not given), the GI50 in the experiment on HT-29 is 19.3 µM (inactive); with OVCAR-8, 10.4 µM (inactive); with T47D, 18.5 µM (inactive); in the experiment with MDA-N, 20.9 µM (inactive); in the experiment on SN12C, 21.6 µM (inactive); in the experiment with SF-295, 12.3 µM (inactive). Besides, the GI50 is 16.1 µM (inactive) with NCI-H226; 12.5 µM (inactive) in the experiment with NCI/ADR-RES; 23.6 µM (inactive) with OVCAR-5; 24.4 µM (inactive) in the experiment with NCI-H460; 28 µM (inactive) in the experiment with Malme-3M; 12.2 µM (inactive) in the experiment on SNB-19. Besides, the GI50 in the experiment with EKVX was 24.6 µM (inactive); in the experiment on HOP-92, 4.2 µM (inactive); in the experiment with M14, 31.2 µM (inactive); with TK-10 it was 16.3 µM (inactive); with 786-0 it was 16.8 µM (inactive); in the experiment with MDA-MB-435, 18.6 µM (inactive). For the same compound, the GI50 in the experiment on A498 is 44.6 µM (inactive); with COLO 205, 17.6 µM (inactive).

Turning to `Cc1cc2c(cc1C)N1C(Cl)=C3CCCCC3=C(C#N)C1N2` (stereo not given), the GI50 was 2.55 µM (inactive) in the experiment with HT-29; 11.5 µM (inactive) with OVCAR-8; 12.2 µM (inactive) with T47D; 4.15 µM (inactive) with MDA-N; 4.71 µM (inactive) in the experiment with SN12C; 20.4 µM (inactive) with SF-295. For the same compound, the GI50 with NCI-H226 is 13.5 µM (inactive); in the experiment on NCI/ADR-RES, 6.31 µM (inactive); with OVCAR-5, 21.1 µM (inactive); in the experiment on NCI-H460, 18 µM (inactive); in the experiment with Malme-3M, 16.8 µM (inactive); in the experiment on SNB-19 it was 20.2 µM (inactive). The GI50 was 16.3 µM (inactive) with EKVX; 7.4 µM (inactive) with HOP-92; 7.38 µM (inactive) in the experiment on M14; 5.65 µM (inactive) with TK-10; 1.92 µM (inactive) with 786-0; 6.03 µM (inactive) in the experiment with MDA-MB-435. The GI50 in the experiment with A498 was 19.1 µM (inactive); in the experiment with COLO 205 it was 16.5 µM (inactive).

As for `CC(=O)OC(C)c1cc2c(s1)C(=O)c1scc(C(C)OC(C)=O)c1C2=O` (stereo not given), the GI50 in the experiment with HT-29 is 0.391 µM (active); with OVCAR-8 it was 0.24 µM (active); in the experiment with T47D it was 0.661 µM (active); in the experiment with MDA-N, 0.0817 µM (active); in the experiment on SN12C, 0.288 µM (active); in the experiment on SF-295, 0.164 µM (active). Moreover, the GI50 was 2.24 µM (inactive) with NCI-H226; 0.255 µM (active) in the experiment on NCI/ADR-RES; 0.57 µM (active) in the experiment on OVCAR-5; 0.167 µM (active) in the experiment with NCI-H460; 0.139 µM (active) in the experiment on Malme-3M; 0.201 µM (active) in the experiment on SNB-19. Moreover, the concentration for 50% growth inhibition (GI50) in the experiment with EKVX is 0.847 µM (active); with HOP-92, 1.71 µM (inactive); in the experiment on M14, 0.117 µM (active); with TK-10 it was 0.571 µM (active); in the experiment on 786-0 it was 0.244 µM (active); with MDA-MB-435, 0.0292 µM (active). The GI50 is 0.619 µM (active) in the experiment on A498 and 0.512 µM (active) in the experiment with COLO 205.

As to `O=C(CSc1n[nH]c(=O)[nH]c1=O)NNC(=O)c1cccc2nc3ccccc3nc12`, the GI50 in the experiment on HT-29 is 49.4 µM (inactive); with OVCAR-8, > 100 µM (inactive); in the experiment with T47D, > 100 µM (inactive); in the experiment with MDA-N, 35.6 µM (inactive); in the experiment with SN12C, 94.8 µM (inactive); in the experiment on SF-295 it was 59.3 µM (inactive). Besides, the GI50 is 90.4 µM (inactive) with NCI-H226; > 100 µM (inactive) with NCI/ADR-RES; > 100 µM (inactive) in the experiment with OVCAR-5; 32.6 µM (inactive) in the experiment with NCI-H460; 26.5 µM (inactive) in the experiment with Malme-3M; 64.1 µM (inactive) with SNB-19. The GI50 in the experiment on EKVX is > 100 µM (inactive); in the experiment on HOP-92, > 100 µM (inactive); in the experiment on M14, 68.1 µM (inactive); in the experiment on TK-10 it was > 100 µM (inactive); with 786-0 it was > 100 µM (inactive); in the experiment on MDA-MB-435, 35.4 µM (inactive). The GI50 in the experiment on A498 was > 100 µM (inactive); with COLO 205, 31.8 µM (inactive).
